The source of these data is US6429204B1, “Method of inhibiting cancer growth” (University of Miami, priority 1997, dated 2002).

Read-outs that look alike come from different tables or passages of the source.

Series [1] relates to C8161 cells. In words: C8161 cell proliferation (doubling time). Format: cell-based, human. The settings on record: 50 μg/mL; for Doubling Time: on plastic, DMSO 22 hr; for increase of doubling time: versus DMSO. The protocol: Cell Culture and Maintenance: C8161 cells, a human melanoma cell line, were maintained in Dulbecco's modified Eagle's medium (DMEM; […] These cells were routinely screened for Mycoplasma contamination using the GenProbe Rapid Detection System (Fisher Scientific; Chicago, Ill.). Chemically Modified Tetracyclines: Fresh stock solutions of the chemically modified tetracycline compounds (2 mg/mL) were prepared for each experiment by hydrating in 2% dimethyl sulfoxide (DMSO)/water pH 10, then adjusting to pH 7.4 using 1.0 M HCl. […] Sigma Chem. Co.; control) or 50 μg/mL of doxycycline or the other CMTs (three wells on each plate per compound). […] The doubling time for C8161 cells in the presence of each compound was then determined and compared to the DMSO treated cells (control).

In series [2] the target is T1, Gelatinase A (Homo sapiens, UniProt P08253).
T1 construct: endogenous in cells; host or cells: C8161
T1 sequence (P08253 110-660): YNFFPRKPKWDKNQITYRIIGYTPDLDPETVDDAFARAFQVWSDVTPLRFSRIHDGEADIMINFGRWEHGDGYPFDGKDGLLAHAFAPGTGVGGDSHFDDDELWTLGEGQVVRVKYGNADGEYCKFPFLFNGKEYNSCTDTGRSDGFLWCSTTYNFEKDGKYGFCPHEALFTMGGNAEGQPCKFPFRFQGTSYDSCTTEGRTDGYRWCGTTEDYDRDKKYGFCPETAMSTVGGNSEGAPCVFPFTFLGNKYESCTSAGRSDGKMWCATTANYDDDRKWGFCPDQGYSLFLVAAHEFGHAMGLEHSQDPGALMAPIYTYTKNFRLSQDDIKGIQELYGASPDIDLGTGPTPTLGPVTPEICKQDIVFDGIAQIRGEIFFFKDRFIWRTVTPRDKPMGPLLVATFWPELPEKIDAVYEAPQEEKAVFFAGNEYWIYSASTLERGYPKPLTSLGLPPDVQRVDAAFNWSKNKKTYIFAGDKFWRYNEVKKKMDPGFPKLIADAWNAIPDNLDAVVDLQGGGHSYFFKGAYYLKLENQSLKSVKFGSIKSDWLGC
The series can be described thus: Zymography with densitometry of C8161 conditioned medium, gelatinase A. The series is classed as cell-based. The settings on record: 50 μg/mL, 24 hr. The protocol:
(§1) Six hundred thousand (6×10^5) C8161 cells were seeded per well in a 12-well dish coated with a laminin/collagen IV/gelatin matrix in DMEM plus Mito+ and 0.1% gentamicin sulfate. After approximately 1 hr incubation to allow the cells to attach, 50 μg/mL of either doxycycline or one of the other CMTs was added per well and the dish then placed in a 37° C. humidified 5% CO2 incubator. After 24 hr, the supernatants were removed and centrifuged to remove any cells or debris. One volume of Laemmli sample buffer minus reductant was added to two volumes of the medium, and this sample electrophoresed without prior heating or boiling on a 10% SDS-PAGE containing 0.1% gelatin (samples normalized based on the same number of cells per volume of medium per time of incubation). After electrophoresis, the gels were washed with gentle shaking at room temperature for 30 min in 50 mM Tris-HCl (pH 7.5) plus 2.5% TRITON® X100 plus 50 μg/mL of the corresponding CMT used in the original treatment. The gel was then placed in incubation buffer (50 mM Tris-Cl/10 mM CaCl2/150 mM NaCl/0.05% NaN3) also containing 50 μg/mL of the corresponding CMT, and incubated at 37° C. for 20-24 hr. The gels were stained with Coomassie BBR-250, then destained with 10% methanol/10% acetic acid in water until the wash remained clear. A photographic negative of the gel was digitized using a video camera and Snappy Video Snapshot system (Play Inc., Rancho Cordova, Calif.). An integrated density was determined for each of the cleared zones of proteolysis using the software ImagePC8α (freely available from the National Institutes of Health), and the corresponding changes in gelatinolytic activities reported compared to the control samples normalized to a value of 1.0.

Series [3] has as its target T2, Gelatinase B (Homo sapiens, UniProt P14780).
T2 construct: endogenous in cells; host or cells: C8161
The series can be described thus: Zymography with densitometry of C8161 conditioned medium, gelatinase B. The series is classed as cell-based. Conditions: 50 μg/mL, 24 hr. The method, then:
as §1

For series [4], the system named is C8161 human melanoma cells. In words: In vitro invasion assay (MICS), laminin/collagen IV/gelatin matrix-coated filter. The series is classed as cell-based. Conditions: 3, 20 and 50 μg/mL; for Percent Inhibition of invasive potential: 48 hr. The protocol:
The in vitro invasive potentials of the control (DMSO only) and chemically-modified tetracycline treated cells were measured using a modified Boyden chamber as previously described (Membrane Invasion Culture System, MICS). An intervening barrier consisting of a polycarbonate filter containing 10 μm pores (Osmonics, Livermore, Calif.) coated with a defined matrix of human laminin/collagen IV/gelatin (Sigma, St. Louis, Mo.) was used for these studies. […] Doxycycline or individual CMTs were then added to different wells of the chamber at 3, 20 or 50 μg/mL 2 hr post-seeding and daily during the assay. After 48 hr, the cells were removed from the lower wells and the number of invasive cells was determined and compared to the original number of cells seeded into the upper wells. Where appropriate, data were corrected for proliferation during the period of the in vitro assay.

For series [5], the system named is C8161 cells. The series can be described thus: In vivo metastasis assay, C8161 cells i.v. in SCID mice. The settings on record: for Number of Lung Metastases/Mouse: Average ± SEM, control 231 ± 49. The method, then: Immunosuppressed mice (athymic nude/nude SCID females from Harlan Sprague Dawley) were housed in autoclaved cages with microisolator tops, and all manipulations of the animals were done in a laminar flow hood after wiping down both the hood, gloves and cages with ABQ sterilant. The mice were fed sterile Pico Lab Chow (Purina) and autoclaved St. Louis tap water. […] The compounds and control (sterile water plus 2% carboxymethyl cellulose) were kept stored at −80° C. wrapped in aluminum foil to prevent any light induced changes, and each day's supply was thawed just prior to use. Four compounds were tested for their effects on the metastatic potential of C8161 cells injected intravenously via the tail vein: […] The concentration of the compounds in the vials used to give the 100 mg/kg doses were 2.5 times that in the 40 mg/kg dose so that approximately the same volume was used in both cases, approximately 0.5 mL/animal. The experiments started with nine animals per group at day −4. On day zero, 2×10^5 C8161 cells in cold Hank's Balanced Salt Solution (HBSS) were injected intravenously via tail vein inoculation. The experiment was continued for an additional 24 days, at which time the animals were sacrificed and their lungs removed and fixed in a solution of Bouins/formaldehyde (5 parts:1 part). Tumors were quantitated on the entire surface of the lungs by rotating the lungs and counting the tumors on each lobe using a 6× magnifying glass. Statistical analysis was performed using the statistical package of Microsoft's Excel spreadsheet software.

Series [6] concerns E-10 Cells. The series can be described thus: MTS cytotoxicity assay, E-10. Conditions: two days. A general note: Tetrazolium dyes change colour on reduction, which living cells bring about.
Protocol: (§2) A panel of chemically modified tetracycline compounds and doxycycline were tested for cytotoxicity against two carcinomas: COLO 205 (a human colon carcinoma-derived cell line) and the E-10 clone of MDA-MB-231 (a human breast carcinoma-derived cell line). Cytoxicity was measured using a conventional assay for viability with a tetrazolium salt (MTS). Cells were grown in media containing the CMTs at concentrations ranging from 5 μM to 100 μM for two days. The cells were then incubated with the MTS for several hours before removal of the supernatant medium for determination of formazan, which is generated only by the viable cells. Results are expressed as percent cytotoxicity, which is simply the percent decline in measured formazan concentration in the sampled medium.
Series [7] has as its system COLO 205 Cells. The series can be described thus: MTS cytotoxicity assay, COLO 205. The settings on record: two days.
Protocol: as §2
Series [8] relates to COLO 205 Cells.
Protocol: as §2
The subject of series [9] is E-10 Cells.
Protocol: as §2
The subject of series [10] is DU-145 and TSU-PR1 prostate cancer cell lines. In words: Prostate cancer cell viability/proliferation (trypan blue, MTT). Format: cell-based, human. An excerpt:
To determine the cytotoxicity of CMTs on prostate tumor cell lines, TSU-PR1 cells (and cells of other tumor cell lines) were exposed to various CMTs or to doxycycline for 24 hr or 48 hr in a complete medium. Cell viability (percent of live cells) was estimated by counting the cells following trypan blue staining. Cellular viability was also estimated by the tetrazolium dye reduction assay (MTT assay) (Lokeshwar et al. 1995b). Due to the aggressive proliferative capacity of cancer cells, it is assumed that viable cells are actively proliferating. Therefore, the measurement of viability was used as an estimate of proliferation. Results are expressed as Mean±SEM from three separate experiments.

T2 sequence (P14780 94-707): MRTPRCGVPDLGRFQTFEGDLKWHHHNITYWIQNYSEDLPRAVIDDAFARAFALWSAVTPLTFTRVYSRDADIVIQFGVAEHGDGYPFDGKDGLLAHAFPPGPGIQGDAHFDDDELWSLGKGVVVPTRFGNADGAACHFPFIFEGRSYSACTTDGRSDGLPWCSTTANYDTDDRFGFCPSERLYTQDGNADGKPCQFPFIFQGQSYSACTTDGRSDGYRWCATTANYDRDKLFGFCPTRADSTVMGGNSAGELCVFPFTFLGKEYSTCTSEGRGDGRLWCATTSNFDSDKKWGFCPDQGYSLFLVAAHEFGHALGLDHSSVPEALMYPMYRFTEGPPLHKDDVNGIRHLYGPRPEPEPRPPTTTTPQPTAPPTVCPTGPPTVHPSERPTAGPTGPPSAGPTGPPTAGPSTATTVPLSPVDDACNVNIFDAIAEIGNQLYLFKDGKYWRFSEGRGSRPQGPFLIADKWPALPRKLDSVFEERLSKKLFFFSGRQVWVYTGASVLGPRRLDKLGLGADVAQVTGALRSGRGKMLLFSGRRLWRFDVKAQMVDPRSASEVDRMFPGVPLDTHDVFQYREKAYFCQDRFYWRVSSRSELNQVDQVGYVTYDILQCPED

For the molecule `CC1(O)c2cccc(O)c2C(=O)C2=C(O)C3(O)C(=O)C(C(N)=O)=C(O)CC3CC21` (stereo not shown) [CMT-1, 4-de(dimethylamino)tetracycline], the “Doubling Time” value in [1] came out at 24 h. Moreover, the “increase of doubling time” value in series [1] is reported as “approximately 9%”. The “Gelatinase A, integrated density normalized to control 1.00” value in series [2] was determined as 0.24. Moreover, the “Gelatinase B, integrated density normalized to control 1.00” value in series [3] came to 0.22. In addition, the “Type of Inhibition” value in [4] is listed as “dose-dependent”. In [4], the “Percent Inhibition of invasive potential” value is listed as 26-58%. In addition, the “Number of Lung Metastases/Mouse” value in series [5] (40 mg/kg daily intragastric) is 129 ± 102; in [5] (100 mg/kg daily intragastric) it was 240 ± 28. For the same molecule, the “effect on number of lung metastases (significance)” value in series [5] (40 mg/kg daily, p<0.05) is listed as “significantly reduced the number of lung metastases”; in [5] (100 mg/kg), “did not significantly reduce the number of lung metastases”. For the same molecule, the percent cytotoxicity stood at 7.6% in series [6] (5 μM); 0% in series [6] (10 μM); 0% in [6] (20 μM); 2.2% in series [6] (50 μM); 7.6% in [6] (100 μM); 0% in [7] (5 μM). In addition, the percent cytotoxicity in series [7] (10 μM) worked out at 4%; in series [7] (20 μM) it was 32.5%; in series [7] (50 μM), 63.8%; in series [7] (100 μM), 82.8%.

Turning to `CC1(O)c2c(Cl)ccc(O)c2C(=O)C2=C(O)C3(O)C(=O)C(C(N)=O)=C(O)CC3CC21` (stereo not shown) [CMT-4, 4-de(dimethylamino)-7-chlorotetracycline], in series [1], the “Doubling Time” value is 22 h. The “increase of doubling time” value in series [1] was “did not affect the doubling time”. The “Gelatinase A, integrated density normalized to control 1.00” value in series [2] amounted to 0.75. The “Gelatinase B, integrated density normalized to control 1.00” value in series [3] came to 0.12. Further, the “Type of Inhibition” value in series [4] is “non-dose”. Also, the “Percent Inhibition of invasive potential” value in series [4] is recorded as “˜20%”. In addition, the percent cytotoxicity in [8] (5 µM) is 1.8%; in series [8] (10 µM) it was 6.8%; in [8] (20 μM) it was 25.3%; in [8] (50 µM) it was 73.3%; in [8] (100 µM), 81.9%; in series [9] (5 µM), 9%. The percent cytotoxicity came out at 16.7% in series [9] (10 µM), 0.8% in series [9] (20 μM), 0% in [9] (50 µM) and 0% in series [9] (100 µM).

Turning to `C[C@H]1c2cccc(O)c2C(O)=C2C(=O)[C@]3(O)C(O)=C(C(N)=O)C(=O)C[C@@H]3[C@@H](O)[C@@H]21` [CMT-8, 6α-deoxy-5-hydroxy-4-de(dimethylamino)tetracycline], the “Doubling Time” value in series [1] worked out at 26 h. Moreover, in series [1], the “increase of doubling time” value was “approximately 18%”. The “Gelatinase A, integrated density normalized to control 1.00” value in series [2] was found to be 0.70. Moreover, the “Gelatinase B, integrated density normalized to control 1.00” value in series [3] is on record as 1.05. The “Type of Inhibition” value in series [4] is recorded as “non-dose”. In [4], the “Percent Inhibition of invasive potential” value is “˜12%”. Also, the “Number of Lung Metastases/Mouse” value in series [5] (40 mg/kg daily intragastric) came to 186 ± 60. For the same molecule, in [5] (at either dosage, p>0.05), the “effect on number of lung metastases (significance)” value is given as “did not significantly reduce the number of lung metastases”. Besides, the percent cytotoxicity in series [6] (5 μM), in series [6] (10 μM), in series [6] (20 μM), in [6] (50 μM), in series [6] (100 μM) and in series [7] (5 μM) was 0% throughout. Further, the percent cytotoxicity in series [7] (10 μM) came to 20.5%; in [7] (20 μM), 35.5%; in [7] (50 μM) it was 44.4%; in [7] (100 μM), 50%.

As for tetracycline pyrazole [CMT-5], in series [10], the “inhibition of cell proliferation” value is “not inhibitory”.
